{
  "source": "paper PMC7287031",
  "about": "(Pharmacology Research & Perspectives, 2020)",
  "key": {"[1]": {"assay": "In vitro plasma protein binding (ultrafiltration), rat", "assay_type": "in vitro ADME", "conditions": "100 and 1000 ng/mL", "experimental": "(§1) Stock solutions were spiked into plasma to achieve the intended concentrations. After incubation for 1 hour at 37°C under constant gentle agitation, the spiked plasma samples (n = 3) were centrifuged (2000 g, 10 min, 37°C) in pre‐warmed Centrifree devices. Total radioactivity was determined in the ultrafiltrate (Cu, concentration of unbound compound) and in the sample introduced into the reservoir before ultrafiltration (Cp). The unbound (fu) and the bound (fb) fraction in plasma were calculated as follows: fu (%) = Cu/Cp × 100; fb (%) = 100‐Fu (%)."}, "[2]": {"assay": "In vitro plasma protein binding (ultrafiltration), dog", "assay_type": "in vitro ADME", "conditions": "100 and 1000 ng/mL", "experimental": "as §1"}, "[3]": {"assay": "Kinetic analysis of ribociclib metabolite formation in HLM and enzyme contribution", "assay_type": "in vitro ADME, human", "conditions": "both sexes, human, pooled human liver microsomes, pH 7.4; HLM, sum of metabolite formation; read-out: CLint, Total of all pathways", "experimental": "(§2) In vitro incubations were carried out in 100‐mM potassium phosphate buffer (pH 7.4) and 5‐mM MgCl2 with a total volume of 200 µL. Substrate and either human liver microsomes (HLM, BD Biosciences, mixed gender pool of n = 50) or recombinant human enzymes (BD Biosciences) were added and pre‐incubated for 3 minutes at 37°C. The reaction was started by addition of a fresh solution of NADPH (1 mmol/L final concentration). The samples were incubated at 37°C with agitation of 500 rpm. For incubations with CYP2A6, CYP2C9, CYP2C18, and CYP4A11, the phosphate buffer was replaced by TRIS buffer (100 mmol/L, pH 7.4) and for flavin‐containing monooxygenases (FMOs), a glycine buffer (50 mM, pH 9.5) was used.\n(§3) The enzymatic reaction was stopped and the protein was precipitated by addition of an equal volume of methanol. […] The supernatant was withdrawn. Aliquots were analyzed by LSC and the supernatant was diluted with water to obtain a final solution containing less than 20% of the organic solvent. For samples of low substrate concentration, supernatants were evaporated to dryness under nitrogen, then re‐suspended in water containing less than 20% of methanol. Samples were analyzed by HPLC combined with radiodetection.\n(§4) Km and Vmax parameters were calculated by using SigmaPlot Version 8.0, Enzyme Kinetics module Version 1.1 software (SPSS Science Inc, Chicago, IL, USA). The intrinsic clearance was calculated by the equation: CLint = Vmax/Km.\n(§5) The intrinsic clearances (Vmax/Km) of each pathway were determined by enzyme kinetics."}, "CYP3A4": {"tested_on": "CYP3A4", "assay": "Kinetic analysis of ribociclib metabolite formation in HLM and enzyme contribution", "assay_type": "in vitro ADME, human", "conditions": "both sexes, human, pooled human liver microsomes, pH 7.4; HLM; read-out: CLint attributed to CYP3A4", "experimental": "as §2, §3, §4, §5"}, "FMO3": {"tested_on": "FMO3", "assay": "Kinetic analysis of ribociclib metabolite formation in HLM and enzyme contribution", "assay_type": "in vitro ADME, human", "conditions": "both sexes, human, pooled human liver microsomes, pH 7.4; HLM; read-out: CLint attributed to FMO3", "experimental": "as §2, §3, §4, §5"}, "human liver microsomes": {"tested_on": "human liver microsomes", "assay": "Kinetic analysis of ribociclib metabolite formation in HLM and enzyme contribution", "assay_type": "in vitro ADME", "conditions": "metabolite formation kinetics", "experimental": "as §2, §3, §4, §5"}, "[4]": {"assay": "Human ADME study: total radioactivity PK in blood and plasma (AMS)", "assay_type": "in vivo", "conditions": "single oral 600 mg [14C] ribociclib, N=6", "experimental": "Subjects continued to fast for 4 hours after drug administration. […] Urine was collected from 0‐6, 6‐12, and 12‐24 h post dose, then over 24‐hour intervals until 504 hours post dose. Feces was collected over 24‐h intervals until 504 hours post dose, during which time the volunteers were confined to the clinic. Vomitus was also scheduled to be collected for 12 hours post dosing. However, no volunteers vomited during the study. […] Electrostatics Corporation 1.5SDH Compact AMS System (Middleton) in the bioanalytical laboratory of Accium BioSciences, Seattle, WA, USA. A known aliquot of each blood and plasma specimen was transferred to a prebaked quartz tube. […] An AMS batch consisted of unknown specimens and chemical blank(s) to monitor for any in‐process contamination. The samples were then dried using vacuum centrifugation and submitted to graphitization. Graphitization consisted of combustion of samples followed by reduction to graphite according to published methods. ^12 Briefly, approximately 200‐mg copper oxide was added to each combustion tube containing the dried sample residue. The combustion tubes were flame‐sealed under vacuum and combusted at approximately 900°C to form carbon dioxide (CO2). Combusted samples were then attached to a disposable transfer system connected to a septa‐sealed vial. […]"}, "[5]": {"assay": "Human ADME study: safety assessments", "assay_type": "in vivo", "conditions": "single oral 600 mg", "from_the_text": "Safety analysis included monitoring and recording of all adverse events, laboratory tests (ophthalmologic exam, hematology, blood chemistry, and urinalysis), vital signs, electrocardiogram, and physical examination."}},
  "data": [
    {"smiles": "CN(C)C(=O)c1cc2cnc(Nc3ccc(N4CCNCC4)cn3)nc2n1C1CCCC1", "note": "[ribociclib, Ribociclib]", "values": [
      {"measurement": "fraction unbound at 1 h", "setting": "[1]", "value": "0.2 ± 0.01"},
      {"measurement": "fraction unbound at 1 h", "setting": "[2]", "value": "0.34 ± 0.01"},
      {"measurement": "microsomal CLint", "setting": "[3]", "value": 31.5, "unit": "µL/min/mg"},
      {"measurement": "microsomal CLint", "setting": "CYP3A4", "value": 23.3, "unit": "µL/min/mg"},
      {"measurement": "microsomal CLint", "setting": "FMO3", "value": 8.19, "unit": "µL/min/mg"},
      {"measurement": "fm (Rel. Clint), CYP3A4 share of oxidative metabolism in HLM", "setting": "human liver microsomes", "value": 74, "unit": "%"},
      {"measurement": "fm (Rel. Clint), FMO3 / hepatic FMO share of oxidative metabolism in HLM", "setting": "human liver microsomes", "value": 26, "unit": "%"},
      {"measurement": "tlast of total radioactivity, median", "setting": "[4]; human blood", "value": 504, "unit": "h"},
      {"measurement": "tlast of total radioactivity, median", "setting": "[4]; human plasma", "value": 504, "unit": "h"},
      {"measurement": "abdominal discomfort, share of subjects", "setting": "[5]; 2 subjects of six", "value": 33.3, "unit": "%"},
      {"measurement": "discontinuation due to an AE", "setting": "[5]", "value": "no subjects discontinued"},
      {"measurement": "serious adverse events (SAEs)", "setting": "[5]", "value": "No serious adverse events"},
      {"measurement": "severity of all AEs", "setting": "[5]", "value": "grade 1"},
      {"measurement": "subjects with an AE suspected to be related to the study drug (headache)", "setting": "[5]", "value": "one subject"},
      {"measurement": "subjects who experienced at least one adverse event (AE)", "setting": "[5]; six healthy male subjects", "value": "Five"}
    ]}
  ]
}
